Results from PubChem BioAssay (NCI).
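Step 1: Grow cells in 96-well plates. Step 2: Expose to compound for 48 hours at 5 concentrations. Step 3: Interpolate endpoints linearly; if unreached, use highest concentration. GI50 marks 50% less growth. The concentration for full growth arrest is given as TGI.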

Experiments:
Test in all cases: DTP human tumour cell line panel, 48 h
[1] = test system: ACHN renal
[2] = test system: COLO 205 colon
[3] = test system: EKVX NSCLC
[4] = test system: MALME-3M melanoma
[5] = test system: OVCAR-3 ovarian
[6] = test system: OVCAR-5 ovarian
[7] = test system: RPMI-8226 leukemia
[8] = test system: RXF 393 renal
[9] = test system: SK-MEL-5 melanoma
[10] = test system: U251 CNS

Row | Compound | GI50 [1] [µM] | TGI [1] [µM] | GI50 [2] [µM] | TGI [2] [µM] | GI50 [3] [µM] | TGI [3] [µM] | GI50 [4] [µM] | TGI [4] [µM] | GI50 [5] [µM] | TGI [5] [µM] | GI50 [6] [µM] | TGI [6] [µM] | GI50 [7] [µM] | TGI [7] [µM] | GI50 [8] [µM] | TGI [8] [µM] | GI50 [9] [µM] | TGI [9] [µM] | GI50 [10] [µM] | TGI [10] [µM]
1 | CCN(C(=O)c1cc(F)ccc1Oc1cncnc1N1CC2(CCN(CC3CCC(NS(=O)(=O)CC)CC3)CC2)C1)C(C)C (stereo not given) | > 100 | > 100 | > 100 | > 100 | > 100 | > 100 | > 100 | > 100 | > 100 | > 100 | > 100 | > 100 | > 100 | > 100 | > 100 | > 100 | > 100 | > 100 | > 100 | > 100
2 | O=C(NCc1ccc(Cn2c(=O)sn(-c3ccccc3)c2=O)cc1)OCc1ccc2c(Br)cc(Br)c(O)c2n1 | 0.281 | 0.927 | 0.399 | 1.79 | 1.5 | 3.12 | 1.38 | 2.78 | 0.267 | 0.738 | 1.43 | 2.97 | 0.312 | 1.72 | 0.546 | 1.83 | 1.44 | 2.75 | 1.52 | 3
3 | COc1ccc(/C=C2\CCC(CNc3ccc(OC)cc3)C2=O)cc1 (stereo not given) | – | 58.6 | – | 31.9 | – | > 73.5 | – | 47.3 | – | 31.6 | – | 38.1 | – | > 24 | – | 29.9 | – | 35.2 | – | 38.5
4 | CCc1cccc(C(C)C)c1N1C(=O)C(=O)C(c2nc3ccccc3s2)C(=O)C1=O | – | > 50 | – | > 50 | – | > 50 | – | > 45.3 | – | > 43.1 | – | > 50 | – | > 50 | – | > 50 | – | > 50 | – | > 50
5 | Clc1ccc(C2SCc3nc4ccccc4n32)cc1Cl (stereo not given) | – | 29.1 | – | 38.3 | – | 28.1 | – | 42.5 | – | 22.5 | – | 22.8 | – | 96.1 | – | 15.7 | – | 21 | – | 30.8
6 | CC1(C)Cc2cc(C(=O)O)c3c(c2C1=O)COCC3 | – | > 100 | – | > 100 | – | > 100 | – | > 100 | – | > 100 | – | > 100 | – | > 100 | – | > 100 | – | > 100 | – | > 100
7 | CCc1cccc(C(C)C)c1NC(=O)C(=O)C(CC(=O)Nc1ccc(Cl)c(Cl)c1)C(=O)OC (stereo not given) | – | > 100 | – | > 100 | – | > 100 | – | > 100 | – | > 100 | – | > 100 | – | > 100 | – | > 100 | – | > 100 | – | > 100
8 | CC(=O)O[C@]1(C(C)=O)CC[C@H]2[C@@H]3C=C(C)C4=CC(=O)CC[C@]4(C)[C@H]3CC[C@@]21C | > 74.1 | > 100 | > 100 | > 100 | 21 | > 100 | > 74 | > 100 | > 100 | > 100 | > 100 | > 100 | 2.78 | > 100 | 57.5 | > 100 | 56.3 | > 100 | > 60.9 | > 100
9 | COC(=O)C1=C(C)NC(C)=C(C(=O)OC)C1/C=C(Cl)/C=C/c1ccccc1 | 24.6 | 76 | 30.9 | 75.6 | 23.5 | 96.4 | 19.8 | 46 | 15.3 | 31.9 | 19.4 | 54.2 | 32.2 | > 100 | 18.4 | 46.6 | 17.2 | 33.4 | 23 | 58.5
10 | COc1ccc(/C(C#N)=C/c2ccc(OC)c(OC)c2)cc1 | – | > 100 | – | > 100 | – | > 100 | – | > 100 | – | > 100 | – | > 100 | – | > 100 | – | > 100 | – | > 100 | – | > 100
